Test results as given in the NIST ThermoML archive (doi:10.1016/j.jct.2015.09.030).
± gives the expanded uncertainty stated by the source.

Tests used:
[1] = Liquid; for viscosity: Falling or rolling sphere viscometry; for mass density: Vibrating tube method
[2] = xn = mol fraction of the nth substance listed; details: 100 kPa, Liquid, x2 = 0; for mass density: Vibrating tube method; for viscosity: Falling or rolling sphere viscometry

`CO` [methanol] showed a viscosity ([1]; 290.15 K, 100 kPa) of 0.6069 ± 0.061 mPa·s, a mass density ([1]; 290.15 K, 100 kPa) of 797.3 ± 6 kg/m3 and a viscosity ([1]; 293.15 K, 100 kPa) of 0.5853 ± 0.059 mPa·s. For the same compound, the mass density ([1]; 293.15 K, 100 kPa) was 793.5 ± 6 kg/m3, the viscosity ([1]; 295.15 K, 100 kPa) was 0.5571 ± 0.056 mPa·s and the mass density ([1]; 295.15 K, 100 kPa) was 790.8 ± 6 kg/m3. For the same compound, the viscosity ([1]; 298.15 K, 100 kPa) was 0.5446 ± 0.055 mPa·s, the mass density ([1]; 298.15 K, 100 kPa) was 786.8 ± 6 kg/m3 and the viscosity ([1]; 303.15 K, 100 kPa) was 0.5122 ± 0.051 mPa·s. For the same compound, the mass density ([1]; 303.15 K, 100 kPa) was 781.4 ± 6 kg/m3, the viscosity ([1]; 308.15 K, 100 kPa) was 0.4794 ± 0.048 mPa·s and the mass density ([1]; 308.15 K, 100 kPa) was 777.3 ± 6 kg/m3. The viscosity ([1]; 313.15 K, 100 kPa) was 0.4508 ± 0.045 mPa·s, the mass density ([1]; 313.15 K, 100 kPa) was 772.1 ± 6 kg/m3 and the viscosity ([1]; 318.15 K, 100 kPa) was 0.4317 ± 0.043 mPa·s. It also gave a mass density ([1]; 318.15 K, 100 kPa) of 767.7 ± 6 kg/m3, a viscosity ([1]; 323.15 K, 100 kPa) of 0.4051 ± 0.041 mPa·s and a mass density ([1]; 323.15 K, 100 kPa) of 762.1 ± 6 kg/m3.

Compound `CO` [methanol] + CCCCCCCCCCCCCC[P+](CCCCCC)(CCCCCC)CCCCCC.[Cl-] has a mass density ([2]; 290.15 K) of 797.3 ± 6 kg/m3, a mass density ([2]; 293.15 K) of 793.5 ± 6 kg/m3 and a viscosity ([2]; 295.15 K) of 0.557 ± 0.056 mPa·s. It also gave a mass density ([2]; 295.15 K) of 790.8 ± 6 kg/m3, a viscosity ([2]; 298.15 K) of 0.544 ± 0.055 mPa·s and a mass density ([2]; 298.15 K) of 786.8 ± 6 kg/m3. For the same compound, the viscosity ([2]; 303.15 K) was 0.512 ± 0.051 mPa·s, the mass density ([2]; 303.15 K) was 781.4 ± 6 kg/m3 and the viscosity ([2]; 308.15 K) was 0.479 ± 0.048 mPa·s. The mass density ([2]; 308.15 K) was 777.3 ± 6 kg/m3, the viscosity ([2]; 313.15 K) was 0.451 ± 0.045 mPa·s and the mass density ([2]; 313.15 K) was 772.1 ± 6 kg/m3.

`CCCCCCCCCCCCCC[P+](CCCCCC)(CCCCCC)CCCCCC.[Cl-]` [trihexyl(tetradecyl)phosphonium chloride] showed a mass density ([1]; 290.15 K, 101.33 kPa) of 897.5 ± 6.2 kg/m3, a viscosity ([1]; 293.15 K, 101.33 kPa) of 1996 ± 300 mPa·s and a mass density ([1]; 293.15 K, 101.33 kPa) of 895.8 ± 6.2 kg/m3. The viscosity ([1]; 295.15 K, 101.33 kPa) was 1996 ± 300 mPa·s, the mass density ([1]; 295.15 K, 101.33 kPa) was 894.6 ± 6.2 kg/m3 and the viscosity ([1]; 298.15 K, 101.33 kPa) was 1683 ± 250 mPa·s. The mass density ([1]; 298.15 K, 101.33 kPa) was 892.8 ± 6.2 kg/m3, the viscosity ([1]; 303.15 K, 101.33 kPa) was 1174 ± 160 mPa·s and the mass density ([1]; 303.15 K, 101.33 kPa) was 889.8 ± 6.2 kg/m3. For the same compound, the viscosity ([1]; 308.15 K, 101.33 kPa) was 824.1 ± 110 mPa·s, the mass density ([1]; 308.15 K, 101.33 kPa) was 886.9 ± 6.2 kg/m3 and the viscosity ([1]; 313.15 K, 101.33 kPa) was 593.7 ± 75 mPa·s. It also gave a mass density ([1]; 313.15 K, 101.33 kPa) of 883.9 ± 6.2 kg/m3, a viscosity ([1]; 318.15 K, 101.33 kPa) of 399.9 ± 48 mPa·s and a mass density ([1]; 318.15 K, 101.33 kPa) of 880.8 ± 6.2 kg/m3. The viscosity ([1]; 323.15 K, 101.33 kPa) was 325.9 ± 38 mPa·s and the mass density ([1]; 323.15 K, 101.33 kPa) was 878 ± 6.2 kg/m3.
